Data taken from ChEMBL document CHEMBL5154688, “Design, Synthesis, and Characterization of I-BET567, a Pan-Bromodomain and Extra Terminal (BET) Bromodomain Oral Candidate” (J Med Chem, 2022).
Activity calls are given as the source filed them. No cut-off for these calls is given here.

Tests used:
[1] = Artificial membrane permeability of the compound; format: ADME; conditions: PAMPA; read-out: permeability
[2] = target: C-C motif chemokine 2 (Homo sapiens, UniProt P13500); assay: Inhibition of MCP-1 in LPS-stimulated human whole blood incubate for 24 hrs by immuno assay; format: tissue-based
Chain of C-C motif chemokine 2 (P13500 whole entry): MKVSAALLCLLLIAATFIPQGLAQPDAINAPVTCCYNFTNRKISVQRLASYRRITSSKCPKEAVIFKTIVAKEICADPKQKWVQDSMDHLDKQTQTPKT

[3] = target: T1, Bromodomain testis-specific protein (Homo sapiens, UniProt Q58F21); assay: Binding affinity to BRDT BD1 (unknown origin) assessed as dissociation constant
[4] = Cmax in KLH-TNP-induced T-cell dependent immunization CD-1 mouse model at 30 mg/kg, po administered daily for 14 days; format: ADME, organism-based; set-up: time 14 day, dose 30 mg/kg, route po; conditions: in vivo
[5] = Antineoplastic activity against human NMC 11060 cells xenografted in SCID mouse assessed as reduction in tumor volume at 30 mg/kg, po for 20 days measured at 20 days of post randomization relative to control; format: functional; conditions: NMC 11060 cell, 480 h, time 20 day
[6] = target: T1, Bromodomain testis-specific protein; assay: Binding affinity to BRDT BD2 (unknown origin) assessed as dissociation constant
[7] = Renal clearance in Wistar Han rat at 3 mg/kg, po or 1.3 mg/kg, iv upto 24 hrs by LC-MS/MS analysis; format: ADME, organism-based; conditions: in vivo
[8] = Antineoplastic activity against human NMC 11060 cells xenografted in SCID mouse assessed as reduction in tumor volume at 10 mg/kg, po for 20 days measured at 8 days of post randomization relative to control; format: functional; conditions: NMC 11060 cell, 480 h, time 20 day
[9] = AUC(0 to 72 hrs) in KLH-TNP-induced T-cell dependent immunization CD-1 mouse model at 30 mg/kg, po administered daily for 14 days; format: ADME, organism-based; set-up: dose 30 mg/kg, time 14 day, route po; conditions: in vivo
[10] = Unbound volume of distribution at steady state in Beagle dog blood at 3 mg/kg, po or 1.0 mg/kg, iv by LC-MS/MS analysis; format: ADME, organism-based, Canis lupus familiaris; conditions: in vivo
[11] = Unbound AUC(0 to 24 hrs) in SCID mouse xenografted with human NMC 11060 cells at 3 to 30 mg/kg, po for 20 days; format: ADME, organism-based; conditions: in vivo, 480 h, dose 3-30 mg/kg, time 20 day
[12] = test system: Mus musculus; assay: Antiinflammatory activity in KLH-TNP-induced T-cell dependent immunization CD-1 mouse model assessed as reduction in circulating IgG1 at 30 mg/kg, po administered every other day for 14 days followed by administration of KLH-TNP after 1 hr; format: functional; conditions: CD-1, T-cell, 336 h, time 14 day
[13] = Toxicity in KLH-TNP-induced T-cell dependent immunization CD-1 mouse model assessed as effect on body weight at 30 mg/kg, po administered daily for 14 days; format: organism-based; conditions: in vivo, 336 h, time 14 day
[14] = target: Histone acetyltransferase p300 (Homo sapiens, UniProt Q09472); assay: Binding affinity to EP300 (unknown origin) assessed as dissociation constant
Chain of Histone acetyltransferase p300 (Q09472 whole entry): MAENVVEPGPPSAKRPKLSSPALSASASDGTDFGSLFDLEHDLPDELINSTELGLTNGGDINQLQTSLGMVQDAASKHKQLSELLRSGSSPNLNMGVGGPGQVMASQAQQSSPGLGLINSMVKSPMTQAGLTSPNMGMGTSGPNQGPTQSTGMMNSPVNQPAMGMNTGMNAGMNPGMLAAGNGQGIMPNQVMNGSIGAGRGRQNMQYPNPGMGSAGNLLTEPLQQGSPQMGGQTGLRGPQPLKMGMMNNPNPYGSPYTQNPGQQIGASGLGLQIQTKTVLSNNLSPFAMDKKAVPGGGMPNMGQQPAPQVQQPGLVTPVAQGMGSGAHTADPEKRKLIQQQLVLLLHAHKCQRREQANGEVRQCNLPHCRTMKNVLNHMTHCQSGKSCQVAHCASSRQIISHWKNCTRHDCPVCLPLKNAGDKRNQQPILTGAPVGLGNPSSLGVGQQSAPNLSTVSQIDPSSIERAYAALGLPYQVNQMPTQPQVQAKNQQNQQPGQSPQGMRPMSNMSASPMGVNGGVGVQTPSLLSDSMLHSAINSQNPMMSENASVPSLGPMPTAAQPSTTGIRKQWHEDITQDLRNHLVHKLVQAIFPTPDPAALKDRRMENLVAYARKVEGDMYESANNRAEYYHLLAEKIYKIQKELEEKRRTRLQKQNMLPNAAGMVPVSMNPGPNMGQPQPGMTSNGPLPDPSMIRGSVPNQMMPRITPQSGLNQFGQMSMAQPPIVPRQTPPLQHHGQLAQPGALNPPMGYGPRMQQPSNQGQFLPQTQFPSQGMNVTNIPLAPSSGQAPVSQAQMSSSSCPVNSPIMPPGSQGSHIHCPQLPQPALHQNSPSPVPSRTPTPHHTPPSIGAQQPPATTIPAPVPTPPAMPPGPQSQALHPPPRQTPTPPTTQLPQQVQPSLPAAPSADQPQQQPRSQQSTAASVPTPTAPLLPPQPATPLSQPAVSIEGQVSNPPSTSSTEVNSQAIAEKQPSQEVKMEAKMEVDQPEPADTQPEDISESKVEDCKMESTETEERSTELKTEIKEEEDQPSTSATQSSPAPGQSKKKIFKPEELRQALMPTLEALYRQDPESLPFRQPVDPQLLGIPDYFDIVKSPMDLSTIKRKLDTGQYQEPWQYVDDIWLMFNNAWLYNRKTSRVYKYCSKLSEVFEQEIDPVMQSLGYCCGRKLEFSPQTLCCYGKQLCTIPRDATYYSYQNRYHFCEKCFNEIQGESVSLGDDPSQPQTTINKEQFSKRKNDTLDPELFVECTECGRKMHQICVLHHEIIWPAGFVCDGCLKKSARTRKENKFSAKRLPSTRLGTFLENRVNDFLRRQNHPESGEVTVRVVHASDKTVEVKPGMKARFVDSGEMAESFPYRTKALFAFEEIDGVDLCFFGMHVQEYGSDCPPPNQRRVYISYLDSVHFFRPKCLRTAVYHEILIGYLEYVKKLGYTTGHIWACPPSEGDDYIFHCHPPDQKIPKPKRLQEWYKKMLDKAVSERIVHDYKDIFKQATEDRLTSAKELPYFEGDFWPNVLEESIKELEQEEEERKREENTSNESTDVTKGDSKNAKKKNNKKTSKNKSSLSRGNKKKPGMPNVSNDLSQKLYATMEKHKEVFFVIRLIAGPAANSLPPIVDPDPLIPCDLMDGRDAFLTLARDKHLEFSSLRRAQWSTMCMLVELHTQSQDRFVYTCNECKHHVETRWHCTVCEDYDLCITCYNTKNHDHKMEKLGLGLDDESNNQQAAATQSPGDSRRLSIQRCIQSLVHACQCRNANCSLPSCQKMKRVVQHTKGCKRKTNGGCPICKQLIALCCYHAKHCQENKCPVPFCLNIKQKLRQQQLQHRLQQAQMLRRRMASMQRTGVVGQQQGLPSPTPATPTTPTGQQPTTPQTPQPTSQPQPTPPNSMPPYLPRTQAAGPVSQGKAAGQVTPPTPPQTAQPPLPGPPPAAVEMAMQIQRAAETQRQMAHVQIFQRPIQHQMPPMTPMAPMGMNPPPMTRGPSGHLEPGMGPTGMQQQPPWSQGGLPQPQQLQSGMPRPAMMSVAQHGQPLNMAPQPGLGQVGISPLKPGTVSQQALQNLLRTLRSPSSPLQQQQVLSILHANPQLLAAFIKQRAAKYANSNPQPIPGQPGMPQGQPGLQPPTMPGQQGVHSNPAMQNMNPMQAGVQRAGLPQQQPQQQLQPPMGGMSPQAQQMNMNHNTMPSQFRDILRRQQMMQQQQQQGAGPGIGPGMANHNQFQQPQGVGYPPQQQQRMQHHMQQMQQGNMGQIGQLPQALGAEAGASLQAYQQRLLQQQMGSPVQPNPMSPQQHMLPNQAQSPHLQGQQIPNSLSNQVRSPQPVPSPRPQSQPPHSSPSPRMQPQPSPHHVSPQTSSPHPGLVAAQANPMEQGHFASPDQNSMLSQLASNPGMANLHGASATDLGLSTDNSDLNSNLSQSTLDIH

[15] = Renal clearance in Beagle dog assessed as ratio/proportion of renal elimination to total clearance at 3 mg/kg, po or 1 mg/kg, iv by LC-MS/MS analysis; format: ADME, organism-based, Canis lupus familiaris; conditions: in vivo
[16] = Antineoplastic activity against human NMC 11060 cells xenografted in SCID mouse assessed as reduction in tumor volume at 10 mg/kg, po for 20 days measured at 6 days of post randomization relative to control; format: functional; conditions: NMC 11060 cell, 480 h, time 20 day
[17] = test system: NUT midline carcinoma; assay: Antineoplastic activity against human NMC 11060 cells xenografted in SCID mouse assessed as reduction in tumor growth at 3 to 30 mg/kg, po for 20 days; format: functional, organism-based; conditions: dose 3-30 mg/kg, time 20.0 day
[18] = Antineoplastic activity against human NMC 11060 cells xenografted in SCID mouse assessed as reduction in tumor volume at 30 mg/kg, po for 20 days measured at 8 days of post randomization relative to control; format: functional; conditions: NMC 11060 cell, 480 h, time 20 day
[19] = Antineoplastic activity against human NMC 11060 cells xenografted in SCID mouse assessed as reduction in tumor volume at 10 mg/kg, po for 20 days measured at 20 days of post randomization relative to control; format: functional; conditions: NMC 11060 cell, 480 h, time 20 day
[20] = target: Voltage-gated inwardly rectifying potassium channel KCNH2 (Homo sapiens, UniProt Q12809); assay: Inhibition of hERG; format: toxicity
Chain of Voltage-gated inwardly rectifying potassium channel KCNH2 (Q12809 whole entry): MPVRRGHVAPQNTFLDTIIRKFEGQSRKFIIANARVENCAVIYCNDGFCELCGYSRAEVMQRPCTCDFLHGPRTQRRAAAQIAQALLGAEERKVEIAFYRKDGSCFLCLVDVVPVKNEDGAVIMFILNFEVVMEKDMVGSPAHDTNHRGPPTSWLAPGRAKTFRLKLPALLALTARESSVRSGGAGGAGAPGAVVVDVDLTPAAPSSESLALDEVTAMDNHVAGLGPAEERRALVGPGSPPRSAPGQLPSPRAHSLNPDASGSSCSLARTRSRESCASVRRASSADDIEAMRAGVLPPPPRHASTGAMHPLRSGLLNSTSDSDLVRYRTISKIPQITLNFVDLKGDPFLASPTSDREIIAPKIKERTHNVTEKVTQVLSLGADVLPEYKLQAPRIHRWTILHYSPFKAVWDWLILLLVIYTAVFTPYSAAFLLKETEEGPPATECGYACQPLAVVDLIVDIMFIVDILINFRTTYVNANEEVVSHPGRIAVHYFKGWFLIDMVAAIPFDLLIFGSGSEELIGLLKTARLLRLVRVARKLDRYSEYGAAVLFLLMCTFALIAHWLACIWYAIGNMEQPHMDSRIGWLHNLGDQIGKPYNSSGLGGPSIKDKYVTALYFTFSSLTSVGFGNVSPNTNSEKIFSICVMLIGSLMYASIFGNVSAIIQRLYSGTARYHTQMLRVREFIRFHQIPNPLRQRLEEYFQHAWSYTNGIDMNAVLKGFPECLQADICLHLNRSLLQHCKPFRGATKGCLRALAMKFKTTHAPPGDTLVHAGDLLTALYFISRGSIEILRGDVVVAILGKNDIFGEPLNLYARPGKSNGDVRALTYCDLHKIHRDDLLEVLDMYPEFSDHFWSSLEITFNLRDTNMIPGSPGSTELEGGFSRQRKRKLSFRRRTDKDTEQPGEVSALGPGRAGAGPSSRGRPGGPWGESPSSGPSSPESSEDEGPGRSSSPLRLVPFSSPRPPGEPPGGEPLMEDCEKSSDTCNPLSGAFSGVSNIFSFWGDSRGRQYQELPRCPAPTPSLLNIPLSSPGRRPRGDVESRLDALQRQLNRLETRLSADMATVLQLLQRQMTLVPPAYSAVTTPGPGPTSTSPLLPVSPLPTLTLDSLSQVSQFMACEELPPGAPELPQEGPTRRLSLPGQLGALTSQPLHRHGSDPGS

[21] = Antineoplastic activity against human NMC 11060 cells xenografted in SCID mouse assessed as reduction in tumor volume at 3 to 30 mg/kg, po for 20 days; format: functional, NUT midline carcinoma; set-up: scale not given: the % may be the effect or the level left; conditions: dose 3-30 mg/kg, time 20 day
[22] = Volume of distribution at steady state in Beagle dog blood at 3 mg/kg, po or 1.0 mg/kg, iv by LC-MS/MS analysis; format: ADME, organism-based, Canis lupus familiaris; conditions: in vivo
[23] = Antineoplastic activity against human NMC 11060 cells xenografted in SCID mouse assessed as reduction in tumor volume at 30 mg/kg, po for 20 days measured at 13 days of post randomization relative to control; format: functional; conditions: NMC 11060 cell, 480 h, time 20 day
[24] = Unbound volume of distribution at steady state in Wistar Han rat blood at 3 mg/kg, po or 1.3 mg/kg, iv measured upto 24 hrs by LC-MS/MS analysis; format: ADME, organism-based; conditions: in vivo
[25] = AUC(0 to 72 hrs) in KLH-TNP-induced T-cell dependent immunization CD-1 mouse model at 30 mg/kg, po administered every third day for 14 days; format: ADME, organism-based; set-up: dose 30 mg/kg, time 14 day, route po; conditions: in vivo
[26] = Intrinsic clearance in rat hepatocytes after 60 mins by LC-MS/MS analysis; format: ADME, cell-based, Hepatocyte; conditions: 1 h
[27] = Intrinsic clearance in dog hepatocytes incubated upto 45 mins by LC-MS/MS analysis; format: ADME, cell-based, Canis lupus familiaris, Hepatocyte; conditions: 0.75 h
[28] = target: Cytochrome P450 3A4 (Homo sapiens, UniProt P08684); assay: Inhibition of CYP3A4 (unknown origin); format: ADME
Chain of Cytochrome P450 3A4 (P08684 whole entry): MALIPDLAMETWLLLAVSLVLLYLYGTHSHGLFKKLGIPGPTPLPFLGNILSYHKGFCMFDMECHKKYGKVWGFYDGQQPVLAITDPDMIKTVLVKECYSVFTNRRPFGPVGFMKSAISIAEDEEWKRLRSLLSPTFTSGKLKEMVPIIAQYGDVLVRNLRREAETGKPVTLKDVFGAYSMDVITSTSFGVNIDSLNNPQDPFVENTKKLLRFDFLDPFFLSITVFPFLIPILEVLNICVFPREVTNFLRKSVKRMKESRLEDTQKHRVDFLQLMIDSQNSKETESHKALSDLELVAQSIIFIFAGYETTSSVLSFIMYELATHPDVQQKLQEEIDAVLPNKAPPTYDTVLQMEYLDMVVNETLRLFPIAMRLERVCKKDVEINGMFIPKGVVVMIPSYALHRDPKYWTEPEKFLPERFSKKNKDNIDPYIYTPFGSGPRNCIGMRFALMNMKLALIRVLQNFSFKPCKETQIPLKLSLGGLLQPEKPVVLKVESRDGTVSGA

[29] = target: Bromodomain-containing protein 3 (Homo sapiens, UniProt Q15059); assay: Binding affinity to BRD3 BD1 (unknown origin) assessed as dissociation constant
Chain of Bromodomain-containing protein 3 (Q15059 whole entry): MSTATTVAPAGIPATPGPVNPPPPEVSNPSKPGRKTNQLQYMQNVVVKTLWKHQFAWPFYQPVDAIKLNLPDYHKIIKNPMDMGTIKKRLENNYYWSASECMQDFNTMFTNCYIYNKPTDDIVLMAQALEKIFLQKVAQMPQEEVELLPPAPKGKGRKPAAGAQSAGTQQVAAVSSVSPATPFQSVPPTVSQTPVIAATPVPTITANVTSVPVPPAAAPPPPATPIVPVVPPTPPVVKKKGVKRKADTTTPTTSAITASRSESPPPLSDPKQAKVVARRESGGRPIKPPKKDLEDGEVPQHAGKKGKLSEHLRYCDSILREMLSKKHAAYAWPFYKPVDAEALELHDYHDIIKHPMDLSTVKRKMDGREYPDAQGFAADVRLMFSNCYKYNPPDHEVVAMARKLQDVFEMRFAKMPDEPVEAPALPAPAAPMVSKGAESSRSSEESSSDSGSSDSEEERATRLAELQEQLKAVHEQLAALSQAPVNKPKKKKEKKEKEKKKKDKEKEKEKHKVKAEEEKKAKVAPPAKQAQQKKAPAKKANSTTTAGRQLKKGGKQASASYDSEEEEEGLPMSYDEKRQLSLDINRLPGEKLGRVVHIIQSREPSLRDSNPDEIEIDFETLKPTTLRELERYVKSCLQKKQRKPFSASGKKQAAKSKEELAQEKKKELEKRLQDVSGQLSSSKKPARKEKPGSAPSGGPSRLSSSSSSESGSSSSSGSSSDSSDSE

[30] = target: Bromodomain-containing protein 4 (Homo sapiens, UniProt O60885); assay: Inhibition of BRD4 BD1 (unknown origin) incubated for 30 mins in presence of fluorescent ligand by TR-FRET method
[31] = Unbound fraction in Wistar Han rat blood at 3 mg/kg, po or 1.3 mg/kg, iv measured upto 24 hrs by LC-MS/MS analysis; format: ADME, organism-based
[32] = Renal clearance in Wistar Han rat assessed as ratio/proportion of renal elimination to total clearance at 3 mg/kg, po or 1.3 mg/kg, iv measured upto 24 hrs by LC-MS/MS analysis; format: ADME, organism-based; conditions: in vivo
[33] = Unbound clearance in Wistar Han rat blood at 3 mg/kg, po or 1.3 mg/kg, iv measured upto 24 hrs by LC-MS/MS analysis; format: ADME, organism-based; conditions: in vivo
[34] = Antineoplastic activity against human NMC 11060 cells xenografted in SCID mouse assessed as reduction in tumor volume at 10 mg/kg, po for 20 days measured at 15 days of post randomization relative to control; format: functional; conditions: NMC 11060 cell, 480 h, time 20 day
[35] = Unbound fraction in Beagle dog blood at 3 mg/kg, po or 1.0 mg/kg, iv by LC-MS/MS analysis; format: ADME, organism-based, Canis lupus familiaris
[36] = Antineoplastic activity against human NMC 11060 cells xenografted in SCID mouse assessed as reduction in tumor volume at 30 mg/kg, po for 20 days measured at 3 days of post randomization relative to control; format: functional; conditions: NMC 11060 cell, 480 h, time 20 day

Papp [1]: 6.8 ×10⁻⁶ cm/s
IC50 [2]: 200 nM
Kd [3]: 25.1 nM
Cmax [4]: 8.5 µM
Kd [6]: 25.1 nM
CL renal at 24 h [7]: 7 mL/min/kg
AUC at 336 h [9]: 103 µM·h
Vduss [10]: 2.9 L/kg
fAUC [11]: 10 µM·h
Kd [14]: 2510 nM
Ratio [15]: 85%
Vdss [22]: 1.2 L/kg
Vduss [24]: 10.4 L/kg
AUC at 336 h [25]: 34 µM·h
CLH [26]: < 0.8 mL/min/g
CLH [27]: < 1.26 mL/min/g
IC50 [28]: > 39.8 µM
Kd [29]: 25.1 nM
IC50 [30]: 126 nM
fraction unbound at 24 h [31]: 0.23
Ratio [32]: 28%
CL free [33]: 109 mL/min/kg
fraction unbound [35]: 0.41
Structure (SMILES): CC(=O)N1c2ccc(C(N)=O)cc2[C@H](Nc2ncc(Cl)cn2)C[C@@H]1C
inhibition in vivo at 30 mg/kg [5]: 93%
inhibition in vivo at 10 mg/kg [8]: 62%
inhibition in vivo at 30 mg/kg [12]: 93%
Activity [13]: Non-Toxic
inhibition in vivo at 10 mg/kg [16]: 54%
Activity [17]: Active
inhibition in vivo at 30 mg/kg [18]: 85%
inhibition in vivo at 10 mg/kg [19]: 51%
IC50 [20]: > 50.1 µM
Activity [21]: >50%
inhibition in vivo at 30 mg/kg [23]: 88%
inhibition in vivo at 10 mg/kg [34]: 65%
inhibition in vivo at 30 mg/kg [36]: 44%
